# Key:
# [1] = molecular target: T1, human M3 muscarinic receptor (Homo sapiens, UniProt P20309); assay: GTP-γ-[35S] binding, antibody capture SPA (agonist and antagonist mode); type: biochemical
# T1 construct: purchased PerkinElmer Life and Analytical Sciences, Boston, MA
# Method: (§1) The antibody capture scintillation proximity technique previously described by DeLapp et al was used in a 96-well plate to determine GTP-γ-[35S] binding. One hundred μl (20–40 fmol/well) of membrane preparation from CHO cells that stably express the human M1-M5 muscarinic receptors (PerkinElmer Life and Analytical Sciences, Boston, MA) were incubated with varying concentration of test compound (final concentrations from 50pM to 1μM) for 30 min. One μM final concentration of GDP was added to M2 and M4 receptor membranes before incubation. […] (500 pM final concentration; Perkin Elmer Life and Analytical Sciences) was added to each well followed by 30 min of incubation. Then the labelled membranes were solubilized with 0.27% Nonidet P40 for 30 min where after they were incubated with 20 μl (final dilution of 1:400) of the appropriate rabbit polyclonal Gα antibody (Covance, Princeton, NJ) for 60 min. An anti-Gαq/11 antibody was used for the M1-, M3-, and M5 membranes, whereas an anti-Gαi-3 antibody was used for the M2- and M4 membranes (Eli Lilly and Company, Indianapolis, IN). After 60 min of incubation, 50 μl (1.25 mg/well) anti-rabbit scintillation proximity assay (SPA) beads (GE Healthcare, Piscataway, NJ) were added per well where after the plates were incubated for another 3 h. By use of a Wallac MicroBeta TriLux scintillation counter (PerkinElmer), the plates were centrifuged for 10 min at 700 × g and counted for 1 min per well. The incubations took place at room temperature in GTP-binding assay buffer (20 mM Hepes, 100 mm NaCl, 5 mM MgC12, pH 7.4). The data were analyzed by use of nonlinear regression for a sigmoidal concentration response curve (GraphPad Prism v. 4.0). Data were normalized to a full agonist response (100 μM oxotremorine-M). […] The antagonist percent inhibition data were normalized to data generated with an EC90 concentration of acetylcholine. The mean relative EC50, IC50, and %Emax, and pKi values were calculated as a mean of at least three independent experiments±SEM. In order to obtain relevant comparisons between subtypes, the experimental system is routinely calibrated with reference agonists (oxotremorine-M, pilocarpine, MCN-A343) to measure full and partial agonism as well as to ensure that the system is not under- or over-reporting functional efficacies. The radioligand binding assays have earlier been described.
# [2] = molecular target: T2, human M2 muscarinic receptor (Homo sapiens, UniProt P08172); assay: as above; type: biochemical
# T2 construct: purchased PerkinElmer Life and Analytical Sciences, Boston, MA
# T2 sequence (P08172 1-466): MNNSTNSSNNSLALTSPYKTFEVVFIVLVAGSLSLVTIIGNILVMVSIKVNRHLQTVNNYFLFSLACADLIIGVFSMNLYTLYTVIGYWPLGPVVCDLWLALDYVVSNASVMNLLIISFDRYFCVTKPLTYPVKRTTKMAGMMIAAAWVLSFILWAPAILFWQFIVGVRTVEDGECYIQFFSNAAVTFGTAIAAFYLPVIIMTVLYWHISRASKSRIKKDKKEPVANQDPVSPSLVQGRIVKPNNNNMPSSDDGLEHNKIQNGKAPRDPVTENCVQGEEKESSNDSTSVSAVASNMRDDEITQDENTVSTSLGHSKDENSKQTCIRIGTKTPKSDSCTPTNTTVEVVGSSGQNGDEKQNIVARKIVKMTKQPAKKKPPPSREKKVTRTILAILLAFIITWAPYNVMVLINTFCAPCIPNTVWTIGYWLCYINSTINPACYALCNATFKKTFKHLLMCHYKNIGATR
# Method: as §1
# [3] = molecular target: T3, human M4 muscarinic receptor (Homo sapiens, UniProt P08173); assay: as above; type: biochemical
# T3 construct: purchased PerkinElmer Life and Analytical Sciences, Boston, MA
# T3 sequence (P08173 1-479): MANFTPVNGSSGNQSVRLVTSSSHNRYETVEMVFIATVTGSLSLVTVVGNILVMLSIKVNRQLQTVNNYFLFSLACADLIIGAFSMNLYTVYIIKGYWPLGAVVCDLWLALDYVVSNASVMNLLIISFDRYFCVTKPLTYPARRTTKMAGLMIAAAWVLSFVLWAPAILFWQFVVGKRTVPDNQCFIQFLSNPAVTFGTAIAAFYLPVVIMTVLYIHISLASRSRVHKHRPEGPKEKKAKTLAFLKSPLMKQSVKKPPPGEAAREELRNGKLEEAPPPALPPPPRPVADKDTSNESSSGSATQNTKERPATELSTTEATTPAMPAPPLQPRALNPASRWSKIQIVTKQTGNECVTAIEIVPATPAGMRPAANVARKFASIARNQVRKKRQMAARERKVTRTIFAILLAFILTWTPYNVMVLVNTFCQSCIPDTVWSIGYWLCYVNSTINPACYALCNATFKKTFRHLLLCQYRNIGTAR
# Method: as §1, with “Then the labelled membranes were solubilized with 0.27% Nonidet P40 for 30 min where after they were incubated with 20 μl (final dilution of 1:400) of the appropriate rabbit polyclonal Gα antibody (Covance, Princeton, NJ) for 60 min.” left out, “After 60 min of incubation, 50 μl (1.25 mg/well) anti-rabbit scintillation proximity assay (SPA) beads (GE Healthcare, Piscataway, NJ) were added per well where after the plates were incubated for another 3 h.” left out
# [4] = molecular target: T4, human M5 muscarinic receptor (Homo sapiens, UniProt P08912); assay: as above; type: biochemical
# T4 construct: purchased PerkinElmer Life and Analytical Sciences, Boston, MA
# T4 sequence (P08912 1-532): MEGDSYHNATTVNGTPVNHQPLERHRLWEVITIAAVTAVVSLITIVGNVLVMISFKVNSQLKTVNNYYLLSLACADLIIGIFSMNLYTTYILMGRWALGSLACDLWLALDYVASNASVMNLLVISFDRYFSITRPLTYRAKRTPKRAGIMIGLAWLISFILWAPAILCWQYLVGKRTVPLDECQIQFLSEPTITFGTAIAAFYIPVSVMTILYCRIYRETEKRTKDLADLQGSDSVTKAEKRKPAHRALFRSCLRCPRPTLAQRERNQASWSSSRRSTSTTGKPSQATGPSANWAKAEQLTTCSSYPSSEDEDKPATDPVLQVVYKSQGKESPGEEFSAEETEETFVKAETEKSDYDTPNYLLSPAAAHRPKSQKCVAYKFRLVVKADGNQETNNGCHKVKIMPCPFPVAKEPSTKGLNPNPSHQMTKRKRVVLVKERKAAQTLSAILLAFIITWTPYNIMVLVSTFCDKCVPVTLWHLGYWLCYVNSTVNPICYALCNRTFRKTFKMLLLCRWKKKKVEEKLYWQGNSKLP
# Method: as §1, with “Then the labelled membranes were solubilized with 0.27% Nonidet P40 for 30 min where after they were incubated with 20 μl (final dilution of 1:400) of the appropriate rabbit polyclonal Gα antibody (Covance, Princeton, NJ) for 60 min.” left out, “After 60 min of incubation, 50 μl (1.25 mg/well) anti-rabbit scintillation proximity assay (SPA) beads (GE Healthcare, Piscataway, NJ) were added per well where after the plates were incubated for another 3 h.” left out
# M3AChR = M3AChR (Homo sapiens, UniProt P20309); assay: Competitive radioligand binding; conditions: competitive binding; negative log-transformed; read-out: pKi (converted)
# Chain of M3AChR (P20309 whole entry): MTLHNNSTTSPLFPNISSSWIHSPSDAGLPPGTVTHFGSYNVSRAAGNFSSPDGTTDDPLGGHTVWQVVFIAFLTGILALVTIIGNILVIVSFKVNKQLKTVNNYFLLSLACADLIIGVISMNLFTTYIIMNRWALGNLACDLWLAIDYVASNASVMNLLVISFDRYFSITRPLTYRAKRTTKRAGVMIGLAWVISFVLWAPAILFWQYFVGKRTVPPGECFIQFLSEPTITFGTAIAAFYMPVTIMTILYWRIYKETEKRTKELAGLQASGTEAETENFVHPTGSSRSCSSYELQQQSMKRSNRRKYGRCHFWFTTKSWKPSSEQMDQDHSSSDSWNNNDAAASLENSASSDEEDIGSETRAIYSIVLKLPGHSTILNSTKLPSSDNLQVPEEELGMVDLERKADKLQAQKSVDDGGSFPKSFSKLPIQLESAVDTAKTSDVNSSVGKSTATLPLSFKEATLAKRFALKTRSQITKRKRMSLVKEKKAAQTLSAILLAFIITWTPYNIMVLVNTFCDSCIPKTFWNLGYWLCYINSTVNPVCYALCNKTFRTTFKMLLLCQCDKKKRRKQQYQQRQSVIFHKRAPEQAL
# schizophrenic patients = test system: schizophrenic patients; parameters: method as in PMID 13425257; conditions: subcutaneous injection, twenty-three schizophrenic patients; cited from earlier work
# [5] = test system: antipsychotic-naïve Cebus Apella monkeys; assay: d-Amphetamine-induced behaviour (unrest, stereotypies, arousal), video rating; type: in vivo
# Method: (§2) Seven male Cebus Apella monkeys were used for evaluation the anti-amphetamine effect and the side effect profile of BuTAC. These monkeys were never before administered antipsychotics and had never experienced EPS, but had previously been administered amphetamine. For further evaluation of the EPS potential of BuTAC, the compound was tested in four male and female monkeys, all sensitized to drug-induced EPS by earlier chronic treatment with classical antipsychotic drugs.
# (§3) All monkeys received all treatments with at least one week between tests and thus served as their own control. To avoid extended physical contact with the experimenter, the cages were reduced in sized by moving the back wall of the cage closer to the front wall to lightly immobilize the monkey while injecting the test substance in the thigh. This was done at 9 am at test days. After the appropriate pre-treatment time, the monkeys were videotaped in their cages at predefined time points after drug injection.
# (§4) The rated primate behaviours and symptoms were the following: unrest, stereotypy, arousal, sedation and bradykinesia (Table 1). All monkeys were videotaped in 90-sec. sessions at specific time points throughout the test sessions. The videotapes were rated for amphetamine-induced behaviours and EPS by two experienced raters blinded to the treatment of the animal by means of a rating scale adapted from Peacock et al. and previously described by Andersen et al. (Table 1). In case of any discrepancy between the two ratings, the recording in question was re-evaluated and a rating agreed upon. The monkeys were videotaped at t = 30, 60, 90, 135, 150, 165, 180, 240, 300 min after BuTAC (or vehicle) administration. For the combination studies, d-amphetamine was injected at t = 120 min. Oral dyskinesia was measured in counts per 90 sec. The severity of other behaviours and symptoms were rated on a scale ranging from 0 (not present) to 6 (extreme presence).
# (§5) For evaluation of anti-amphetamine effects, BuTAC was tested in doses of 0.001, 0.003, 0.01 mg/kg in combination with 0.5 mg/kg of d-amphetamine. BuTAC or peanut oil vehicle was injected s.c. at approximately 9 a.m. Pre-treatment time before s.c. injection of amphetamine was 120 min. For evaluation of side effects, BuTAC was tested alone at doses of 0.001, 0.003 and 0.01 mg/kg in antipsychotic-naïve monkeys and at doses of 0.003 and 0.01 mg/kg in monkeys sensitized to extrapyramidal side effects (EPS) by earlier long-term treatment with first generation antipsychotics. […] None of the animals were sacrificed.
# (§6) Data from the experiments where BuTAC was administered alone collected at t = 60, 180, 300 min are presented. For the d-amphetamine / BuTAC study, data collected at t(amp) = 60, 120 and 180 min (t = 180, 240, 300 min) are reported. Data were analyzed for overall treatment effects at each time point by means of the non-parametric Friedman’s test for repeated measures. The Student Newman-Keuls comparison procedure was used to analyze for specific dose effects. For all tests, the accepted level of significance was p<0.05.
# [6] = test system: antipsychotic-naïve Cebus Apella monkeys; assay: Side effects of BuTAC alone or with d-amphetamine; type: in vivo; conditions: d-amphetamine 0.5 mg/kg alone
# Method: as §2, §3, §4, §5, §6
# monkeys [7] = assay: BuTAC-induced emesis and its inhibition by domperidone; type: in vivo, Cebus Apella
# Method: S1 Table. Emesis BuTAC / Domperidone
# BuTAC 0.01 mg/kg / 1 in 7
# Domperidone was purchased from Tocris Bioscience (Bristol, United Kingdom) and dissolved
# in 0.9% saline. The compound was administered subcutaneously where after the animals
# monkeys [8] = test system: monkeys; parameters: method as in PMID 10435384; conditions: cited from earlier work
# [9] = antagonist mode, maximal inhibition of EC90 agonist response
# [10] = percentage of maximum 100 μM oxotremorine-M signal
# [11] = percentage of maximum 100 μM oxotremorine-M signal, read-out: % Emax
# T1 sequence (P20309 whole entry): as above
structure (smiles),measurement,setting,value
"CCCCCCOc1nsnc1C1=CCCN(C)C1 [Xanomeline, xanomeline]",EC50,"[1]; agonist mode, mean ± SEM of negative log-transformed values, read-out: Rel pEC50 (converted)",17.8 nM
same,IC50,"[1]; antagonist mode against EC90 of agonist, negative log-transformed, read-out: Rel pIC50 (converted)",832 nM
same,% Inhibition,[1]; [9],87.6 ± 6.79%
same,Emax,[1]; [10],13.6 ± 0.56%
same,% Inhibition,[2]; [9],19.4 ± 0.77%
same,Emax,[2]; [10],55.2 ± 5.12%
same,% Inhibition,[3]; [9],51.4 ± 2.61%
same,Emax,[3]; [11],41.8 ± 1.99%
same,% Inhibition,[4]; [9],81.8 ± 18.5%
same,Emax,[4]; [11],28.7 ± 0.7%
same,Ki,M3AChR,27.5 nM
COC(=O)C1=CCCN(C)C1 [arecoline],Patients with clinical improvement (“lucid intervals”),schizophrenic patients,more than 80%
"C[C@H](N)Cc1ccccc1.C[C@H](N)Cc1ccccc1.O=S(=O)(O)O [d-amphetamine, d-Amphetamine sulphate, reference compound]",Stereotypies,"[5]; amphetamine 0.5 mg/kg alone, all three test times",significantly induced stereotypies
same,Arousal,"[5]; d-amphetamine 0.5 mg/kg alone, all test times",induced arousal
same,Unrest,"[5]; d-amphetamine 0.5 mg/kg alone, all time points, relative to vehicle",significantly increased unrest
same,Emetic events (vomiting) (monkeys affected),[6],0
same,Salivation (monkeys affected),[6],0
same,Sedation 2 ≤ X ≤ 5 (monkeys affected),[6],0
O=c1[nH]c2ccccc2n1CCCN1CCC(n2c(=O)[nH]c3cc(Cl)ccc32)CC1 [domperidone],"Emetic events (vomiting), monkeys with emesis",monkeys [7]; BuTAC 0.01 mg/kg / domperidone 0.05 mg/kg s.c.,3/7
same,"Emetic events (vomiting), monkeys with emesis",monkeys [7]; BuTAC 0.01 mg/kg / domperidone 0.10 mg/kg s.c.,1/7
same,Effect on BuTAC (0.01 mg/kg)-induced emesis,monkeys [7]; domperidone 0.05 and 0.1 mg/kg,dose dependently inhibited
O=C(CCCN1CCC(O)(c2ccc(Cl)cc2)CC1)c1ccc(F)cc1 [haloperidol],Minimal effective dose to inhibit amphetamine-induced behaviour,monkeys [8],0.015 mg/kg

# Source: article PMC4399838, “Antipsychotic-Like Effect of the Muscarinic Acetylcholine Receptor Agonist BuTAC in Non-Human Primates” (PLoS ONE, 2015)
